Holding throughout (format): functional, organism-based
Experiment [1] concerns Plasmodium falciparum. The experiment in a line: (§1) Antimalarial activity as reduced parasitaemia after 72 hrs against chloroquine-resistant Plasmodium falciparum K1 infected human O+ erythrocytes by DNA stain without pepstatin. Particulars: K1, 72 h.
In experiment [2] the test system is Plasmodium falciparum. As to the kind of experiment: Antimalarial activity as reduced parasitaemia after 72 hrs against chloroquine-sensitive Plasmodium falciparum 3D7 infected human O+ erythrocytes by DNA stain without pepstatin. Particulars: 3D7, 72 h.
Experiment [3] deals with Plasmodium falciparum. Described as §1. Particulars: K1, 72 h. The source holds these as a separate data set.
Experiment [4] deals with Plasmodium falciparum. As to the kind of experiment: Antimalarial activity as reduced parasitaemia after 72 hrs against chloroquine-sensitive Plasmodium falciparum 3D7 infected human O+ erythrocytes by DNA stain with pepstatin. Particulars: 3D7, 72 h.

In ChEMBL document CHEMBL1136945, “Antimalarial activity of thiosemicarbazones and purine derived nitriles” (Bioorg Med Chem Lett, 2009) one finds EC50 data, which are given here for 35 molecules.

A value given as a limit tells only on which side of the number the result lay.

Turning to `NC(=S)N/N=C(/CCc1ccccc1)c1cccc(Cl)c1`, the EC50 in experiment [1], in experiment [2] and in experiment [3] was greater than 30 µM in each case.
As to `NC(=S)N/N=C(/C=C/c1ccccc1)c1cccc(C(F)(F)F)c1`, the EC50 in experiment [1], in experiment [4], in experiment [2] and in experiment [3] was 30 µM in each case.
For `NC(=S)N/N=C(/CCc1ccccc1)c1ccccc1`, the EC50 in experiment [1], in experiment [2] and in experiment [3] was greater than 30 µM each time.
In the case of `NC(=S)N/N=C(/CCc1ccccc1)c1cc(C(F)(F)F)cc(C(F)(F)F)c1`, the EC50 in experiment [1], in experiment [4], in experiment [2] and in experiment [3] was 30 µM each time.
Regarding `CCC(C)CNc1nc(C#N)nc2c1NCN2C1CCCC1` (configuration not stated), the EC50 in experiment [1], in experiment [4], in experiment [2] and in experiment [3] was greater than 30 µM in each case.
On to `NC(=S)N/N=C(/c1ccccc1)c1cc(Cl)cc(Cl)c1`, for which the EC50 in experiment [1], in experiment [2] and in experiment [3] was greater than 30 µM in each case.
Turning to `CC(Nc1nc(C#N)nc2c1NCN2Cc1ccccc1)c1ccccc1` (configuration not stated), the EC50 in experiment [1] was greater than 30 µM; in experiment [4], 30 µM; in experiment [2], greater than 30 µM; in experiment [3], greater than 30 µM.
Regarding `CCCCCCNc1nc(C#N)nc2c1NCN2CC1CCCCC1`, the EC50 in experiment [1], in experiment [4], in experiment [2] and in experiment [3] was greater than 30 µM in each case.
Turning to `CCCCCCNc1nc(C#N)nc2c1NCN2C1CCCC1`, the EC50 in experiment [1], in experiment [4], in experiment [2] and in experiment [3] was greater than 30 µM each time.
Take `CCCCCCNc1nc(C#N)nc2c1NCN2Cc1ccccc1`: the EC50 in experiment [1], in experiment [4], in experiment [2] and in experiment [3] was greater than 30 µM each time.
In the case of `CC(Nc1nc(C#N)nc2c1NCN2C1CCCC1)c1ccccc1` (configuration not stated), the EC50 is 30 µM in experiment [1], greater than 30 µM in experiment [4], greater than 30 µM in experiment [2] and 30 µM in experiment [3].
Turning to `N#Cc1nc(NCc2ccc(Cl)cc2)c2c(n1)N(C1CCCC1)CN2`, the EC50 is greater than 30 µM in experiment [1], 30 µM in experiment [4], greater than 30 µM in experiment [2] and 30 µM in experiment [3].
`CCCCN1CNc2c(NCc3cccc(C)c3)nc(C#N)nc21`: the EC50 in experiment [1], in experiment [4], in experiment [2] and in experiment [3] was greater than 30 µM in each case.
On to `N#Cc1nc(NCc2ccccc2)c2c(n1)N(Cc1ccccc1)CN2`, for which the EC50 in experiment [1], in experiment [4], in experiment [2] and in experiment [3] was greater than 30 µM in each case.
Regarding `CCCCN1CNc2c(NCc3ccccc3)nc(C#N)nc21`, the EC50 in experiment [1], in experiment [4], in experiment [2] and in experiment [3] was greater than 30 µM each time.
As to `N#Cc1nc(NCc2ccc(Cl)cc2)c2c(n1)N(CC1CCCCC1)CN2`, the EC50 in experiment [1], in experiment [4], in experiment [2] and in experiment [3] was greater than 30 µM in each case.
On to `CCCCN1CNc2c(NCCc3ccccc3)nc(C#N)nc21`, for which the EC50 in experiment [1], in experiment [4], in experiment [2] and in experiment [3] was greater than 30 µM in each case.
Regarding `N#Cc1nc(NCCc2ccccc2)c2c(n1)N(Cc1ccccc1)CN2`, the EC50 in experiment [1], in experiment [4], in experiment [2] and in experiment [3] was greater than 30 µM throughout.
`N#Cc1nc(NCCc2ccccc2)c2c(n1)N(c1cccnc1)CN2`: the EC50 in experiment [1], in experiment [4], in experiment [2] and in experiment [3] was greater than 30 µM each time.
On to `CC(C)Oc1ccccc1-c1cccc(CNc2nc(C#N)nc3c2ncn3CCCO)c1`, for which the EC50 in experiment [1], in experiment [4], in experiment [2] and in experiment [3] was 30 µM each time.
On to `CCC(C)CNc1nc(C#N)nc2c1NCN2Cc1ccccc1` (configuration not stated), for which the EC50 is greater than 30 µM in experiment [1], 30 µM in experiment [4], greater than 30 µM in experiment [2] and greater than 30 µM in experiment [3].
Take `Cc1cccc(CNc2nc(C#N)nc3c2NCN3C2CCCC2)c1`: the EC50 in experiment [1], in experiment [4], in experiment [2] and in experiment [3] was greater than 30 µM each time.
As to `CCCCN1CNc2c(NCc3ccc(Br)cc3)nc(C#N)nc21`, the EC50 is 30 µM in experiment [1], 30 µM in experiment [4], greater than 30 µM in experiment [2] and greater than 30 µM in experiment [3].
In the case of `CCCCN1CNc2c(NCc3ccc(Cl)cc3)nc(C#N)nc21`, the EC50 in experiment [1] was 30 µM; in experiment [4], 30 µM; in experiment [2], greater than 30 µM; in experiment [3], greater than 30 µM.
Take `CCCCN1CNc2c(NC(C)c3ccccc3)nc(C#N)nc21` (configuration not stated): the EC50 in experiment [1] is 30 µM; in experiment [4], 30 µM; in experiment [2] it was greater than 30 µM; in experiment [3], 30 µM.
As for `N#Cc1nc(NCc2ccc(-c3ccsc3)cc2)c2ncn(CCCO)c2n1`, the EC50 in experiment [1], in experiment [4], in experiment [2] and in experiment [3] was 30 µM in each case.
On to `Cc1ccc(/C(=N/NC(N)=S)c2cc(C(F)(F)F)cc(C(F)(F)F)c2)cc1`, for which the EC50 in experiment [1], in experiment [4], in experiment [2] and in experiment [3] was 30 µM each time.
In the case of `Cc1ccccc1-c1cccc(CNc2nc(C#N)nc3c2ncn3CCCO)c1`, the EC50 in experiment [1], in experiment [4], in experiment [2] and in experiment [3] was 30 µM throughout.
With `N#Cc1nc(NCc2ccc(-c3cccs3)cc2)c2ncn(CCCO)c2n1`, the 50% effective concentration (EC50) in experiment [1], in experiment [4], in experiment [2] and in experiment [3] was 30 µM each time.
Turning to `N#Cc1nc(NCc2ccccc2)c2c(n1)N(CCCO)CN2`, the EC50 in experiment [1], in experiment [4], in experiment [2] and in experiment [3] was greater than 30 µM each time.
Regarding `N#Cc1nc(NCc2ccc(Br)cc2)c2c(n1)N(Cc1ccccc1)CN2`, the EC50 in experiment [1] was 30 µM; in experiment [4], 30 µM; in experiment [2] it was greater than 30 µM; in experiment [3] it was 30 µM.
As to `N#Cc1nc(NCc2ccccc2)c2c(n1)N(Cc1cccc(C(F)(F)F)c1)CN2`, the EC50 in experiment [1], in experiment [4], in experiment [2] and in experiment [3] was 30 µM in each case.
As to `COc1ccc(CNc2nc(C#N)nc3c2NCN3C2CCCC2)cc1`, the EC50 in experiment [1], in experiment [4], in experiment [2] and in experiment [3] was greater than 30 µM in each case.
`N#Cc1nc(NCc2ccc(Cl)cc2)c2c(n1)N(Cc1ccccc1)CN2`: the EC50 in experiment [1] was greater than 30 µM; in experiment [4], 30 µM; in experiment [2], greater than 30 µM; in experiment [3], 30 µM.
Consider `CC(=O)Nc1ccc(CNc2nc(C#N)nc3c2ncn3CCCO)cc1`, for which the EC50 in experiment [1], in experiment [4], in experiment [2] and in experiment [3] was 30 µM each time.
